# PMC5111108, “An insecticide resistance-breaking mosquitocide targeting inward rectifier potassium channels in vectors of Zika virus and malaria” (Scientific Reports, 2016)
# pIC50: −log10 of the molar value. Where two headings read alike, the source gives them in different places.
# Legend:
# hKir2.1 = target: T1, hKir2.1 (Homo sapiens, UniProt P63252); assay: Tl+ flux assay, mammalian Kir2.1; type: cell-based
# T1 construct: expressed in transfected cells
# T1 sequence (P63252 1-427): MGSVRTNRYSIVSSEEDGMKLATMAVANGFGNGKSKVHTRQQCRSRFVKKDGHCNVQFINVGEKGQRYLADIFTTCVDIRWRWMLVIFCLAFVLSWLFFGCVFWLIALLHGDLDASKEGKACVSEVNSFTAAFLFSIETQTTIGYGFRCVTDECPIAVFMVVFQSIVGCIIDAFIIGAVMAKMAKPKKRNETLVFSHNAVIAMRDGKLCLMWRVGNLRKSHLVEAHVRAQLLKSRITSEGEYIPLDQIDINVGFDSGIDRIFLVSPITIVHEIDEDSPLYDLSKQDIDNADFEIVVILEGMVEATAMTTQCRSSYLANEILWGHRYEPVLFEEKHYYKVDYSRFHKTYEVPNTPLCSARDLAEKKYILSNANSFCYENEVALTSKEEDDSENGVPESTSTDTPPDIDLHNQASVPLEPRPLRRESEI
# Experimental: The open-reading frame of a full-length cDNA encoding AnKir1 cloned from An. gambiae Malpighian tubules (Genbank Accession # KJ596497)[17] was sub-cloned into the pcDNA5/TO expression vector (Life Technologies) and used for stable cell line generation, as described previously. Expression constructs for mammalian Kir channels were developed and validated in previous studies by our group.
# Tl+ flux assay development
# Tl+ flux assays were performed essentiall y as described previousl y (1). Briefl y, stabl y transfect ed T-Rex -HEK- 293- AnKir1 cells were cultured overnight in 384-well plates in media containing DMEM, 10% dial yz ed FBS and 1μg/ m L tetrac ycline to induce channel expression
# (Fig. S1A). The next day, the cell culture medium was replaced with a dye-loading solution containing assay buffer (Hanks Balanced Salt Solution with 20 mM HEPES, pH 7.3), 0.01% (w/v) Pluronic F-127 (Li fe Technologies, Carlsbad, CA), and 1.2 μM of the thallium-sensitive dye Thallos-AM (TEFl abs, Austin, TX). Following 1 hr incubation at room temperature, the d ye-loading solution was washed from the plates and replaced with 20 μ L/well of assa y buffer. The plates were transferred t o a Ham amatsu Functional Drug Screening System 6000 (FDSS6000; Hamamatsu, Tokyo, J apan) where 20 μ L/well of test compounds in assay buffer (as prepared below) were added and allowed to incubate with the cells for 20 min. After the incubation period, a baseline recordi ng was collected at 1 Hz for 10 s (excitation 470 ± 20 nm, emission 540 ± 30 nm) followed by a t hallium stimulus buffer addition (10 μL/well) and data collection for an additional 4 min. The Tl + stimulus buffer contains in (mM) 125 NaHCO3, 1.8 CaSO4, 1 MgSO4, 5 glucose, 12 Tl2SO4, 10 HEPES, pH 7.4. For Tl + flux assays on Kir2.x, Kir4.1 and Kir6.2/SUR1 ex pressing cells, the Tl+ stimulus buffer contained 1.8 mM Tl 2SO4. […]
# Prism software (GraphPad Software) was used to generate CRC from Tl+ fl ux ..Half-inhibition concentration (IC50) values were calculated from fits using a four parameter logistic equation.
# High-throughput screeni ng
# The test compounds were transferred to daughter pol yprop ylene 384-well plates (G reiner Bio-One, Monroe, NC) using an Echo555 liquid handler (Labcyte, Sunnyvale, CA), and then diluted into assay buffer to generat e a 2X stock in 0.6% DMSO (0.3% final). […]
# Concentration- response curves (CRCs) were gener ated b y screening compounds at 3-fold dilution series (1 nM - 30 μM).
# Tl+ flux data were anal yzed as previousl y d escri bed (2, 3) using a combination of Excel (Microsoft Corp, Redmond, WA) with XLfit add-in (IDBS, Guildford, Surre y, UK), Ori ginPro (Ori gin Lab, Northampton, MA), and GraphPad Prism (GraphPad Software, San Diego, CA, USA) software. R aw data were opened in Excel and each data point in a gi ven trace was divided by the first data point from that trace (static ratio) followed by subtraction of data points from control traces gen erated in presence of vehicl e co ntrols. The slope of the fluorescen ce increas e beginning 5 s after Tl+ addition and ending 15 s after Tl + addition was calcu lated.
# An. gambiae G3 strain = assay: Topical toxicity bioassay, An. gambiae G3 strain adult females; type: in vivo, Anopheles gambiae; settings: adult female An. gambiae; for ED50, G3 Strain: 24 h, (95% confidence limits), synergists PBO/DEF applied 4 h prior where labelled
# Experimental: Topical toxicity bioassays were performed based on the method of Pridgeon et al.[50]. Briefly, non-blood fed adult female mosquitoes were chilled on ice for 1–3 minutes, during which 200 nL of chemical (dissolved in 95% ethanol) was applied onto the abdomen of the insect using a handheld Hamilton® micro-applicator. For synergism studies, 500 ng of the synergist (i.e., piperonyl butoxide [PBO] or S,S,S-tributyl phosphorotrithioate [DEF]) per milligram of mosquito (ng/mg) was applied to the abdomen 4 h prior to application of the insecticide. […] The three ED50 values obtained were then averaged and presented as a mean. An ethanol-only treatment was included in each experiment as a negative control. Treated mosquitoes were transferred to small cages with access to 10% sucrose and held under rearing conditions for 24 h. Mortality was recorded at 24 h.
# [1] = Tl+ flux, Tables S2/S3 and supplemental text, read-out: hKir2.1 IC50
# [2] = Tl+ flux assay, read-out: Kir2.1 IC50 (Tl+ flux)
SMILES,pIC50 (hKir2.1; [1]),pIC50 (hKir2.1; [2]),"ED50, G3 Strain (An. gambiae G3 strain)",ED30 (An. gambiae G3 strain)
O=C1CCCc2c1ccn2CC(=O)N1CCCc2ccccc21 [Compound 4],< 4.52,,,
O=C(Cn1nc(C(F)(F)F)c2c1CCCC2)N1CCCC2CCCCC21 (centres unmarked) [Compound 9],< 4.52,,,
O=C(Cn1nc(C(F)(F)F)c2c1CCCC2)N1CCCC(c2ccccc2)C1 (centres unmarked) [Compound 12],< 4.52,,,
CC1CC(C)CN(C(=O)Cn2nc(C(F)(F)F)c3c2CCCC3)C1 (centres unmarked) [Compound 13],< 4.52,,,
"O=C(Cn1nc(C(F)(F)F)c2c1CCCC2)N1CCCc2ccccc21 [VU041, 1-(3,4-dihydroquinolin-1(2H)-yl)-2-(3-(trifluoromethyl)-4,5,6,7-tetrahydro-1H-indazol-1-yl)ethan-1-one]",4.95,4.90,1.8 (0.9–3.1) A μg/mg,1 μg/mg of mosquito
O=C(Cn1ncc2c1CCOC2)N1CCCc2ccccc21 [VU730],,< 4.52,2.4 (2.1–2.9) A μg/mg,
O=C(Cn1nc(C(F)(F)F)c2c1CCCC2)NC1CCC1 [VU937],,,>10 µg/mg,
